Results as given in PubChem BioAssay AID2060885 (Molecular Pharmacology Branch, DTP, NCI, 2025).

System: NCI-H23 complex spheroids with HUVEC/MSC, viability
Assay: Anticancer human tumor NCI-H23 cell line growth inhibition [RAS];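 further: spheroids exposed to compound for 7 days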;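 on viability, T/C: 100% = DMSO vehicle control viability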
Conditions: for IC50: curve of first compound; for viability, T/C: stronger effect = lower value
Procedure, shortened: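 Multi-cell-type spheroids: tumor cells plus HUVEC endothelial cells and mesenchymal stem cells. RAS-pathway inhibitors were combined with targeted agents, each dosed in half-log steps down from clinical Cmax, or from 10 microM when Cmax was unknown.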

[1] = second compound 0.000949 µM, first compound 0.0316 µM
[2] = second compound 0.000949 µM, first compound 0.1 µM
[3] = second compound 0.000949 µM, first compound 0.316 µM
[4] = second compound 0.000949 µM, first compound 1 µM
[5] = second compound 0.000949 µM, first compound 3.16 µM
[6] = second compound 0.000949 µM, first compound 10 µM
[7] = second compound 0.003 µM, first compound 0.0316 µM
[8] = second compound 0.003 µM, first compound 0.1 µM
[9] = second compound 0.003 µM, first compound 0.316 µM
[10] = second compound 0.003 µM, first compound 1 µM
[11] = second compound 0.003 µM, first compound 3.16 µM
[12] = second compound 0.003 µM, first compound 10 µM
[13] = second compound 0.00949 µM, first compound 0.0316 µM
[14] = second compound 0.00949 µM, first compound 0.1 µM
[15] = second compound 0.00949 µM, first compound 0.316 µM
[16] = second compound 0.00949 µM, first compound 1 µM
[17] = second compound 0.00949 µM, first compound 3.16 µM
[18] = second compound 0.00949 µM, first compound 10 µM
[19] = second compound 0.03 µM, first compound 0.0316 µM
[20] = second compound 0.03 µM, first compound 0.1 µM
[21] = second compound 0.03 µM, first compound 0.316 µM
[22] = second compound 0.03 µM, first compound 1 µM
[23] = second compound 0.03 µM, first compound 3.16 µM
[24] = second compound 0.03 µM, first compound 10 µM
[25] = second compound 0.0949 µM, first compound 0.0316 µM
[26] = second compound 0.0949 µM, first compound 0.1 µM
[27] = second compound 0.0949 µM, first compound 0.316 µM
[28] = second compound 0.0949 µM, first compound 1 µM
[29] = second compound 0.0949 µM, first compound 3.16 µM
[30] = second compound 0.0949 µM, first compound 10 µM
[31] = second compound 0.3 µM, first compound 0.0316 µM
[32] = second compound 0.3 µM, first compound 0.1 µM
[33] = second compound 0.3 µM, first compound 0.316 µM
[34] = second compound 0.3 µM, first compound 1 µM
[35] = second compound 0.3 µM, first compound 3.16 µM
[36] = second compound 0.3 µM, first compound 10 µM
[37] = second compound 0.000949 µM, first compound 0.00316 µM
[38] = second compound 0.000949 µM, first compound 0.01 µM
[39] = second compound 0.003 µM, first compound 0.00316 µM
[40] = second compound 0.003 µM, first compound 0.01 µM
[41] = second compound 0.00949 µM, first compound 0.00316 µM
[42] = second compound 0.00949 µM, first compound 0.01 µM
[43] = second compound 0.03 µM, first compound 0.00316 µM
[44] = second compound 0.03 µM, first compound 0.01 µM
[45] = second compound 0.0949 µM, first compound 0.00316 µM
[46] = second compound 0.0949 µM, first compound 0.01 µM
[47] = second compound 0.3 µM, first compound 0.00316 µM
[48] = second compound 0.3 µM, first compound 0.01 µM

## CC(C)NCC(C(=O)N1CCN(c2ncnc3c2C(C)CC3O)CC1)c1ccc(Cl)cc1 (stereo not drawn) + CCn1c(-c2cccnc2C(C)OC)c2c3cc(ccc31)N1CCOC(CC(NC(=O)C(C(C)C)N(C)C(=O)C3(F)CCN(C(=O)C#CC(C)(C)N(C)C)CC3)C(=O)N3CCCC(N3)C(=O)OCC(C)(C)C2)C1
Second compound 0.000949 µM
  IC50: < 31.6 nM
Second compound 0.003 µM
  IC50: < 31.6 nM
Second compound 0.00949 µM
  IC50: < 31.6 nM
Second compound 0.03 µM
  IC50: < 31.6 nM
Second compound 0.0949 µM
  IC50: < 31.6 nM
Second compound 0.3 µM
  IC50: < 31.6 nM
[1]
  viability, T/C: 33.6%
[2]
  viability, T/C: 35.1%
[3]
  viability, T/C: 23.7%
[4]
  viability, T/C: 23.4%
[5]
  viability, T/C: 17.5%
[6]
  viability, T/C: 11.6%
[7]
  viability, T/C: 33.8%
[8]
  viability, T/C: 27.3%
[9]
  viability, T/C: 22%
[10]
  viability, T/C: 18.7%
[11]
  viability, T/C: 18.1%
[12]
  viability, T/C: 10.3%
[13]
  viability, T/C: 28.9%
[14]
  viability, T/C: 24.2%
[15]
  viability, T/C: 25.3%
[16]
  viability, T/C: 19.6%
[17]
  viability, T/C: 14.9%
[18]
  viability, T/C: 12.3%
[19]
  viability, T/C: 30.9%
[20]
  viability, T/C: 25.3%
[21]
  viability, T/C: 25.2%
[22]
  viability, T/C: 20.4%
[23]
  viability, T/C: 13.8%
[24]
  viability, T/C: 12.3%
[25]
  viability, T/C: 24.3%
[26]
  viability, T/C: 26.8%
[27]
  viability, T/C: 22.6%
[28]
  viability, T/C: 19.6%
[29]
  viability, T/C: 13.3%
[30]
  viability, T/C: 12.5%
[31]
  viability, T/C: 21.4%
[32]
  viability, T/C: 23.2%
[33]
  viability, T/C: 22%
[34]
  viability, T/C: 16.6%
[35]
  viability, T/C: 11.6%
[36]
  viability, T/C: 13.5%

## CC(C)n1nc(-c2ccc3oc(N)nc3c2)c2c(N)ncnc21 + CCn1c(-c2cccnc2C(C)OC)c2c3cc(ccc31)N1CCOC(CC(NC(=O)C(C(C)C)N(C)C(=O)C3(F)CCN(C(=O)C#CC(C)(C)N(C)C)CC3)C(=O)N3CCCC(N3)C(=O)OCC(C)(C)C2)C1
Second compound 0.000949 µM
  IC50: < 0.316 nM
Second compound 0.003 µM
  IC50: < 0.316 nM
Second compound 0.00949 µM
  IC50: < 0.316 nM
Second compound 0.03 µM
  IC50: < 0.316 nM
Second compound 0.0949 µM
  IC50: < 0.316 nM
Second compound 0.3 µM
  IC50: < 0.316 nM
Second compound 0.000949 µM, first compound 0.000316 µM
  viability, T/C: 33.1%
Second compound 0.000949 µM, first compound 0.001 µM
  viability, T/C: 33.1%
[37]
  viability, T/C: 22%
[38]
  viability, T/C: 18.4%
[1]
  viability, T/C: 16.5%
[2]
  viability, T/C: 8.34%
Second compound 0.003 µM, first compound 0.000316 µM
  viability, T/C: 30.4%
Second compound 0.003 µM, first compound 0.001 µM
  viability, T/C: 25%
[39]
  viability, T/C: 20.8%
[40]
  viability, T/C: 18.1%
[7]
  viability, T/C: 12.2%
[8]
  viability, T/C: 8.88%
Second compound 0.00949 µM, first compound 0.000316 µM
  viability, T/C: 28%
Second compound 0.00949 µM, first compound 0.001 µM
  viability, T/C: 24.2%
[41]
  viability, T/C: 22.4%
[42]
  viability, T/C: 17.7%
[13]
  viability, T/C: 12%
[14]
  viability, T/C: 9.44%
Second compound 0.03 µM, first compound 0.000316 µM
  viability, T/C: 26.2%
Second compound 0.03 µM, first compound 0.001 µM
  viability, T/C: 24.5%
[43]
  viability, T/C: 20.3%
[44]
  viability, T/C: 18.6%
[19]
  viability, T/C: 10.4%
[20]
  viability, T/C: 9.27%
Second compound 0.0949 µM, first compound 0.000316 µM
  viability, T/C: 27.5%
Second compound 0.0949 µM, first compound 0.001 µM
  viability, T/C: 25.4%
[45]
  viability, T/C: 24.9%
[46]
  viability, T/C: 15.9%
[25]
  viability, T/C: 9.52%
[26]
  viability, T/C: 10.3%
Second compound 0.3 µM, first compound 0.000316 µM
  viability, T/C: 24.9%
Second compound 0.3 µM, first compound 0.001 µM
  viability, T/C: 21.9%
[47]
  viability, T/C: 22.9%
[48]
  viability, T/C: 16.1%
[31]
  viability, T/C: 10.5%
[32]
  viability, T/C: 9.53%

## CC(Nc1ccc2c(c1)OCCn1cc(N3C(=O)OCC3C(F)F)nc1-2)C(N)=O (stereo not drawn) + CCn1c(-c2cccnc2C(C)OC)c2c3cc(ccc31)N1CCOC(CC(NC(=O)C(C(C)C)N(C)C(=O)C3(F)CCN(C(=O)C#CC(C)(C)N(C)C)CC3)C(=O)N3CCCC(N3)C(=O)OCC(C)(C)C2)C1
Second compound 0.000949 µM
  IC50: < 31.6 nM
Second compound 0.003 µM
  IC50: < 31.6 nM
Second compound 0.00949 µM
  IC50: < 31.6 nM
Second compound 0.03 µM
  IC50: < 31.6 nM
Second compound 0.0949 µM
  IC50: < 31.6 nM
Second compound 0.3 µM
  IC50: < 31.6 nM
[1]
  viability, T/C: 29.1%
[2]
  viability, T/C: 22.3%
[3]
  viability, T/C: 21%
[4]
  viability, T/C: 23.1%
[5]
  viability, T/C: 21.2%
[6]
  viability, T/C: 14%
[7]
  viability, T/C: 28.8%
[8]
  viability, T/C: 23.6%
[9]
  viability, T/C: 19.2%
[10]
  viability, T/C: 21%
[11]
  viability, T/C: 21.1%
[12]
  viability, T/C: 13.9%
[13]
  viability, T/C: 28.1%
[14]
  viability, T/C: 21.2%
[15]
  viability, T/C: 20.8%
[16]
  viability, T/C: 19.1%
[17]
  viability, T/C: 18.2%
[18]
  viability, T/C: 14.7%
[19]
  viability, T/C: 23.1%
[20]
  viability, T/C: 24.4%
[21]
  viability, T/C: 20.3%
[22]
  viability, T/C: 18.3%
[23]
  viability, T/C: 17%
[24]
  viability, T/C: 16%
[25]
  viability, T/C: 24.7%
[26]
  viability, T/C: 21.1%
[27]
  viability, T/C: 22.5%
[28]
  viability, T/C: 20.7%
[29]
  viability, T/C: 13.8%
[30]
  viability, T/C: 16.6%
[31]
  viability, T/C: 22.4%
[32]
  viability, T/C: 21.3%
[33]
  viability, T/C: 20.1%
[34]
  viability, T/C: 15%
[35]
  viability, T/C: 16.7%
[36]
  viability, T/C: 14.9%

## O=C(c1ccc(F)c(F)c1Nc1ccc(I)cc1F)N1CC(O)([C@@H]2CCCCN2)C1 + CCn1c(-c2cccnc2C(C)OC)c2c3cc(ccc31)N1CCOC(CC(NC(=O)C(C(C)C)N(C)C(=O)C3(F)CCN(C(=O)C#CC(C)(C)N(C)C)CC3)C(=O)N3CCCC(N3)C(=O)OCC(C)(C)C2)C1
Second compound 0.000949 µM
  IC50: < 3.16 nM
Second compound 0.003 µM
  IC50: 26 nM
Second compound 0.00949 µM
  IC50: < 3.16 nM
Second compound 0.03 µM
  IC50: < 3.16 nM
Second compound 0.0949 µM
  IC50: < 3.16 nM
Second compound 0.3 µM
  IC50: < 3.16 nM
[37]
  viability, T/C: 32.3%
[38]
  viability, T/C: 33.2%
[1]
  viability, T/C: 26.2%
[2]
  viability, T/C: 31.8%
[3]
  viability, T/C: 16.7%
[4]
  viability, T/C: 6.86%
[39]
  viability, T/C: 112%
[40]
  viability, T/C: 54.8%
[7]
  viability, T/C: 51.7%
[8]
  viability, T/C: 42.8%
[9]
  viability, T/C: 27.8%
[10]
  viability, T/C: 10.3%
[41]
  viability, T/C: 34.5%
[42]
  viability, T/C: 25.4%
[13]
  viability, T/C: 29.8%
[14]
  viability, T/C: 25.9%
[15]
  viability, T/C: 14.6%
[16]
  viability, T/C: 8.22%
[43]
  viability, T/C: 30.1%
[44]
  viability, T/C: 30.7%
[19]
  viability, T/C: 28.3%
[20]
  viability, T/C: 25.4%
[21]
  viability, T/C: 12.6%
[22]
  viability, T/C: 9.45%
[45]
  viability, T/C: 29.1%
[46]
  viability, T/C: 30.2%
[25]
  viability, T/C: 30.9%
[26]
  viability, T/C: 22.3%
[27]
  viability, T/C: 11%
[28]
  viability, T/C: 9.76%
[47]
  viability, T/C: 29.4%
[48]
  viability, T/C: 26.3%
[31]
  viability, T/C: 26.5%
[32]
  viability, T/C: 19.8%
[33]
  viability, T/C: 11%
[34]
  viability, T/C: 9.07%
